Measured values as given in US9670227B2, “Thienopyrimidine derivatives, a process for their preparation and pharmaceutical compositions containing them” (LES LABORATOIRES SERVIER, priority 2013, dated 2017).
Read-outs that look alike come from different tables or passages of the source.

Key:
[1] = tested on: H929 multiple myeloma tumour line; test: In vitro cytotoxicity, Microculture Tetrazolium Assay; assay type: cell-based; conditions: H929 cells, 48 hours exposure, MTT, read-out: IC50 (μM) MTT H929
Protocol: The cytotoxicity studies were carried out on the H929 multiple myeloma tumour line.
The cells are distributed onto microplates and exposed to the test compounds for 48 hours.

Mcl-1 protein = Mcl-1 protein (UniProtKB primary accession number: Q07820) (Homo sapiens, UniProt Q07820); test: Inhibition of Mcl-1 by fluorescence polarisation, Method 1; assay type: binding; conditions: fluorescence polarisation; Method 1, or Method 2; read-out: IC50 (M) Mcl-1 FP
Chain of Mcl-1 protein (Q07820 whole entry): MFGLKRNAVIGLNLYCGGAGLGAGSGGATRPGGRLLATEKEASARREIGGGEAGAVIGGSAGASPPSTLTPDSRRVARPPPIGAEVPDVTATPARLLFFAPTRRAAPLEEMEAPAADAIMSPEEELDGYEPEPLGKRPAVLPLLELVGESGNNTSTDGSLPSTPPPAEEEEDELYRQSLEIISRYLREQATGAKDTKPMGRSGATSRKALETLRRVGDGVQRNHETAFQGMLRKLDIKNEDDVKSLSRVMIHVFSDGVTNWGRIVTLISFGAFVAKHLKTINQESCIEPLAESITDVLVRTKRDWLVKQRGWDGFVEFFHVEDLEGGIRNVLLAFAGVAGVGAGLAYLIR
Summary of the method: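 An 11-point DMSO dilution of compound is mixed with buffer (10 mM HEPES, 150 mM NaCl, 0.05% Tween 20, pH 7.4) carrying 1 nM fluorescein-labelled ligand and 5 nM Mcl-1, final concentrations. Displacement is monitored by fluorescence polarisation.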

Structure (SMILES) | IC50 [1] [µM] | IC50 (Mcl-1 protein) [M] | IC50 ([1]; Homo sapiens, NCI-H929, 48 h) [µM]
COc1ccccc1C[C@@H](Oc1ncnc2sc(-c3ccc(F)c(Cl)c3F)c(-c3ccc(OCCN4CCN(C)CC4)c(Cl)c3C)c12)C(=O)O [Example 536, (2R)-2-{[6-(3-chloro-2,4-difluorophenyl)-(5Sa)-5-{3-chloro-2-methyl-4-[2-(4-methylpiperazin-1-yl)ethoxy]phenyl}thieno[2,3-d]pyrimidin-4-yl]oxy}-3-(2-methoxyphenyl)propanoic acid] | 0.797 | 7.7e-08 | 
COc1ccccc1CC(Oc1ncnc2sc(-c3ccc(C)cc3)c(-c3ccc(OCCN4CCN(C)CC4)c(Cl)c3C)c12)C(=O)O [Example 538, (2R)-2-{[(5Sa)-5-{3-chloro-2-methyl-4-[2-(4-methylpiperazin-1-yl)ethoxy]phenyl}-6-(4-methylphenyl)thieno[2,3-d]pyrimidin-4-yl]oxy}-3-(2-methoxyphenyl)propanoic acid] |  | 4.7e-08 | 0.672
COc1ccccc1CC(Oc1ncnc2sc(-c3ccc(Cl)cc3)c(-c3ccc(OCCN4CCN(C)CC4)c(Cl)c3C)c12)C(=O)O [Example 539, (2R)-2-{[(5Sa)-5-{3-chloro-2-methyl-4-[2-(4-methylpiperazin-1-yl)ethoxy]phenyl}-6-(4-chlorophenyl)thieno[2,3-d]pyrimidin-4-yl]oxy}-3-(2-methoxyphenyl)propanoic acid] |  | 7.2e-08 | 0.731
COc1ccccc1CC(Oc1ncnc2sc(-c3ccc(F)cc3F)c(-c3ccc(OCCN4CCN(C)CC4)c(Cl)c3C)c12)C(=O)O [Example 540, (2R)-2-{[(5Sa)-5-{3-chloro-2-methyl-4-[2-(4-methylpiperazin-1-yl)ethoxy]phenyl}-6-(2,4-difluorophenyl)thieno[2,3-d]pyrimidin-4-yl]oxy}-3-(2-methoxyphenyl)propanoic acid] |  | 3.2e-09 | 0.311
COc1ccccc1CC(Oc1ncnc2sc(-c3ccc(C)o3)c(-c3ccc(OCCN4CCN(C)CC4)c(Cl)c3C)c12)C(=O)O [Example 541, (2R)-2-{[(5Sa)-5-{3-chloro-2-methyl-4-[2-(4-methylpiperazin-1-yl)ethoxy]phenyl}-6-(5-methylfuran-2-yl)thieno[2,3-d]pyrimidin-4-yl]oxy}-3-(2-methoxyphenyl)propanoic acid] |  | 2.9e-08 | 0.329
CCc1ccc(-c2sc3ncnc(OC(Cc4ccccc4OC)C(=O)O)c3c2-c2ccc(OCCN3CCN(C)CC3)c(Cl)c2C)o1 [Example 543, (2R)-2-{[(5Sa)-5-{3-chloro-2-methyl-4-[2-(4-methylpiperazin-1-yl)ethoxy]phenyl}-6-(5-ethylfuran-2-yl)thieno[2,3-d]pyrimidin-4-yl]oxy}-3-(2-methoxyphenyl)propanoic acid] |  | 4.2e-08 | 0.766
COc1ccc(-c2sc3ncnc(OC(Cc4ccccc4OC)C(=O)O)c3c2-c2ccc(OCCN3CCN(C)CC3)c(Cl)c2C)o1 [Example 544, (2R)-2-{[(5Sa)-5-{3-chloro-2-methyl-4-[2-(4-methylpiperazin-1-yl)ethoxy]phenyl}-6-(5-methoxyfuran-2-yl)thieno[2,3-d]pyrimidin-4-yl]oxy}-3-(2-methoxyphenyl)propanoic acid] |  | 1.4e-08 | 0.274
COc1ccccc1CC(Oc1ncnc2sc(-c3cccc([N+](=O)[O-])c3)c(-c3ccc(OCCN4CCN(C)CC4)c(Cl)c3C)c12)C(=O)O [Example 545, (2R)-2-{[(5Sa)-5-{3-chloro-2-methyl-4-[2-(4-methylpiperazin-1-yl)ethoxy]phenyl}-6-(3-nitrophenyl)thieno[2,3-d]pyrimidin-4-yl]oxy}-3-(2-methoxyphenyl)propanoic acid] |  | 3.9e-08 | 1.1
COc1ccccc1CC(Oc1ncnc2sc(-c3cccc(C)c3)c(-c3ccc(OCCN4CCN(C)CC4)c(Cl)c3C)c12)C(=O)O [Example 546, (2R)-2-{[(5Sa)-5-{3-chloro-2-methyl-4-[2-(4-methylpiperazin-1-yl)ethoxy]phenyl}-6-(3-methylphenyl)thieno[2,3-d]pyrimidin-4-yl]oxy}-3-(2-methoxyphenyl)propanoic acid] |  | 1.7e-08 | 0.416
C#Cc1cccc(-c2sc3ncnc(OC(Cc4ccccc4OC)C(=O)O)c3c2-c2ccc(OCCN3CCN(C)CC3)c(Cl)c2C)c1 [Example 547, (2R)-2-{[(5Sa)-5-{3-chloro-2-methyl-4-[2-(4-methylpiperazin-1-yl)ethoxy]phenyl}-6-(3-ethynylphenyl)thieno[2,3-d]pyrimidin-4-yl]oxy}-3-(2-methoxyphenyl)propanoic acid] |  | 3.3e-08 | 0.475
COc1ccccc1CC(Oc1ncnc2sc(-c3cccc(C#N)c3)c(-c3ccc(OCCN4CCN(C)CC4)c(Cl)c3C)c12)C(=O)O [Example 548, (2R)-2-{[(5Sa)-5-{3-chloro-2-methyl-4-[2-(4-methylpiperazin-1-yl)ethoxy]phenyl}-6-(3-cyanophenyl)thieno[2,3-d]pyrimidin-4-yl]oxy}-3-(2-methoxyphenyl)propanoic acid] |  | 1.8e-08 | 0.497
COc1ccccc1CC(Oc1ncnc2sc(-c3cccc(C(F)(F)F)c3)c(-c3ccc(OCCN4CCN(C)CC4)c(Cl)c3C)c12)C(=O)O [Example 549, (2R)-2-[((5Sa)-5-{3-chloro-2-methyl-4-[2-(4-methylpiperazin-1-yl)ethoxy]phenyl}-6-[3-(trifluoromethyl)phenyl]thieno[2,3-d]pyrimidin-4-yl)oxy]-3-(2-methoxyphenyl)propanoic acid] |  | 1.3e-07 | 1.5
COc1ccccc1CC(Oc1ncnc2sc(-c3cccc(N(C)C)c3)c(-c3ccc(OCCN4CCN(C)CC4)c(Cl)c3C)c12)C(=O)O [Example 552, (2R)-2-[((5Sa)-5-{3-chloro-2-methyl-4-[2-(4-methylpiperazin-1-yl)ethoxy]phenyl}-6-[3-(dimethylamino)phenyl]thieno[2,3-d]pyrimidin-4-yl)oxy]-3-(2-methoxyphenyl)propanoic acid] |  | 4.1e-08 | 0.784
COc1ccccc1CC(Oc1ncnc2sc(-c3cccc(O)c3)c(-c3ccc(OCCN4CCN(C)CC4)c(Cl)c3C)c12)C(=O)O [Example 553, (2R)-2-{[(5Sa)-5-{3-chloro-2-methyl-4-[2-(4-methylpiperazin-1-yl)ethoxy]phenyl}-6-(3-hydroxyphenyl)thieno[2,3-d]pyrimidin-4-yl]oxy}-3-(2-methoxyphenyl)propanoic acid] |  | 1.1e-08 | 0.585
COc1cccc(-c2sc3ncnc(OC(Cc4ccccc4OC)C(=O)O)c3c2-c2ccc(OCCN3CCN(C)CC3)c(Cl)c2C)c1 [Example 554, (2R)-2-{[(5Sa)-5-{3-chloro-2-methyl-4-[2-(4-methylpiperazin-1-yl)ethoxy]phenyl}-6-(3-methoxyphenyl)thieno[2,3-d]pyrimidin-4-yl]oxy}-3-(2-methoxyphenyl)propanoic acid] |  | 2.4e-08 | 0.177
CCOc1cccc(-c2sc3ncnc(OC(Cc4ccccc4OC)C(=O)O)c3c2-c2ccc(OCCN3CCN(C)CC3)c(Cl)c2C)c1 [Example 557, (2R)-2-{[(5Sa)-5-{3-chloro-2-methyl-4-[2-(4-methylpiperazin-1-yl)ethoxy]phenyl}-6-(3-ethoxyphenyl)thieno[2,3-d]pyrimidin-4-yl]oxy}-3-(2-methoxyphenyl)propanoic acid] |  | 4.5e-09 | 0.475
